Where two headings read alike, the source gives them in different places.
Test system: eyes of rabbits
From the text: Fifty-two (52) healthy rabbits of the New Zealand Cross variety (26 male, 26 female) weighing 1.5 kg to 2.5 kg were individually marked for identification and were housed individually in suspended cages. The animals received a commercially available pelleted rabbit feed on a daily basis, with tap water available ad libitum.
The animals were divided into thirteen groups of 4 animals each (2 males, 2 femals). Two animals in each group (1 male, 1 female) were selected for pretreatment fundus photography and fluorescein angiography.
The fundus photography was performed by restraining the animals and visualizing the optic nerve, retinal arcades and fundus with a KOWA® RC-3 Fundus Camera loaded with Kodak Gold 200 ASA film.
The fluorescein angiography involved a 1.5-ml injection of 2% sterile fluorescein solution via the marginal ear vein. Approximately 30 seconds post-injection the fluorescein was visualized upon localization of the optic nerve, retinal vessels and fundus.
The following day, each animal was anesthetized by intravenous administration of a combination of 34 mg/kg of ketamine hydrochloride and 5-mg/kg xylazine. The eyelids were retracted using a lid speculum, and the eyes were disinfected with an iodine-povidone wash.
The experimental treatments administered to each animal group were as follows:
The day following the injections (Day 1) the 26 animals, which were subjected to the fundus photography and fluorescein angiography, were observed using the same methods as for the pre-dose examination.
The eyes were then surgically removed and placed in a fixture solution of 2.5% glutaraldehyde with 0.1M phosphate buffered saline at pH 7.37. Alternatively, one randomly selected rabbit was euthanized by pentobarbital injection but then fixed by intracardiac injection of the gluteraldehyde solution into the left ventricle to determine the effect of the fixation procedure on the histology findings within the enucleated eyes.
On Day 7, the 13 female rabbits that had been previously photographed and angiography performed were subjected to same observations following the methods previously described.
The remaining 26 animals were euthanized as described above 7 days after dosing. The eyes were fixed in the same manner as those, which had been fixed on day 2. Also, one randomly selected rabbit was subjected to the same intracardiac gluteraldehyde fixation procedure described hereabove for the previously randomly selected animal.
The eyes of the animals treated in this example were examined grossly and microscopically for evidence of treatment-related toxicities.

Thimerosal [BSS + Thimerisol]
treatment-related toxicity of the eyes (gross and microscopic examination) (0.0075 mg thimerosal in BSS, day 2): free of toxicity | treatment-related toxicity of the eyes (gross and microscopic examination) (0.0075 mg thimerosal in BSS, day 7, listed as BSS plus thimerosal): significant toxic effects | treatment-related toxicity of the eyes (gross and microscopic examination) (0.0075 mg thimerosal in BSS, day 7, listed as BSS+thimerosal): breakdown of the blood retinal barrier | treatment-related toxicity of the eyes (gross and microscopic examination) (0.025 mg thimerosal in BSS, day 2 and 7 post dose): severe treatment-related toxic effects | toxic effects in the eyes of rabbits (conclusion) (intravitreal injection, at the dosages tested): do cause toxic effects

Reference: patent publication US20020119141A1, “Biochemical methods that eliminate corneal scars, opacification and haze” (priority 1999, published 2002)
